Results from patent US8530465B2, “1, 2-disubstituted amido-anthraquinone derivatives, preparation method and application thereof” (National Defense Medical Center, priority 2010, dated 2013).

Assays:
[1] = MTT assay, PhTERT-SEAP (H1299); format: cell-based, human; details: human, H1299 cells carrying the PhTERT-SEAP reporter, PhTERT-SEAP (H1299); for viability at 1 μM: Conc. 1 μM, read-out: Relative MTT viability (%); for viability at 10 μM: Conc. 10 μM; for viability at 10 μM / viability at 100 μM: read-out: Relative MTT viability (%) (converted); for viability at 100 μM: Conc. 100 μM
Experimental: Further, cells were subjected to MTT assay to compare the relative toxicity or effect of each compound on cell proliferation and activity.
The above-described cells are cultured in a 96-well plate, to which was added with 25 μl MTT solution, and cultured in a 37° C. carbon dioxide incubator for 4 hours. Then, 100 μl Lysis buffer is added and incubated in a 37° C. carbon dioxide incubator overnight. An ELISA reader (Bio-Rad Model 450) is used to read optical density (O.D.) at 550 nm.

hTERT = assay: Secreted alkaline phosphatase (SEAP) assay, PhTERT-SEAP (H1299); format: cell-based; details: Homo sapiens, 24 hours; for activity at 1 µM: NCI-H1299, Conc. 1 μM, read-out: Relative SEAP activity (%); for activity at 10 µM: NCI-H1299, Conc. 10 μM; for activity at 10 µM / activity at 100 µM: read-out: Relative SEAP activity (%) (converted); for activity at 100 µM: NCI-H1299, Conc. 100 μM
Experimental: H1299 were grown in RPMI 1640 media supplemented with 10% fetal bovine serum, 100 units/mL penicillin and […] streptomycin in a humidified atmosphere with 5% CO2 at 37° C. Culture media were changed every three days. To establish stable cell lines that the expression of hTERT could be monitored by a reporter system, a about 3.3 kbp DNA fragment ranging from −3338 to +1 bp of the hTERT gene (hTERT promoter, PhTERT) was subcloned upstream to a secreted alkaline phosphatase gene (SEAP) and transfected into H1299 by electroporation. The stable clones were selected using G418. The stable clones derived from H1299 were cultured using conditions that are similar to their parental cells.
Secreted alkaline phosphatase was used as the reporter system to monitor the transcriptional activity of hTERT. Here, about 10^4 cells each were grown in 96-well plates and incubated at 37° C. for 24 hours and changed with fresh media. Varying amounts of drugs were added and cells were incubated for another 24 hours. Culture media were collected and heated at 65° C. for 10 min to inactivate heat-labile phosphatases. An equal amount of SEAP buffer (2 M diethanolamine, 1 mM MgCl2, and 20 mM L-homoarginine) was added to the media and p-nitrophenyl phosphate was added to a final concentration of 12 mM. Absorptions at 405 nm were taken, and the rate of absorption increase is determined (the increasing rate of absorbance at 405 nm was used to represent the activity of SEAP).

melting point	SMILES	viability at 1 μM [1]	activity at 1 µM (hTERT)	activity at 10 µM (hTERT)	activity at 100 µM (hTERT)	viability at 10 μM [1]	viability at 100 μM [1]
191 to 192 °C	O=C(CCl)Nc1ccc2c(c1NC(=O)C1CC1)C(=O)c1ccccc1C2=O [CC-25, 1-[(cyclopropanecarbonyl)amino]-2-(chloroacetamido)-anthraquinone]	88.7 ± 3.92%	83.8 ± 2.67%	3.46%	1.38%		
216 to 217 °C	O=C(CCl)Nc1ccc2c(c1NC(=O)C1CCCCC1)C(=O)c1ccccc1C2=O [CC-26, 1-[(cyclohexanecarbonyl)amino]-2-(chloroacetamido)-anthraquinone]	82.3 ± 4.4%	82.5 ± 4.53%	3.07%	1.76%	1.54%	
211 to 212 °C	O=C(CCl)Nc1ccc2c(c1NC(=O)c1ccco1)C(=O)c1ccccc1C2=O [CC-27, 1-[(2-furoyl)amino]-2-(chloroacetamido)-anthraquinone]	80.4 ± 3.56%	84.7 ± 23.3%	2.94%	2.62%		
212 to 213 °C	O=C(CCl)Nc1ccc2c(c1NC(=O)c1ccno1)C(=O)c1ccccc1C2=O [CC-29, 1-[(5-isoxazolecarbonyl)amino]-2-(chloroacetamido)-anthraquinone]	105 ± 7.19%	92.5 ± 0.99%	4.91%	1.35%	3.47%	0.11%
217 to 218 °C	O=C(CCl)Nc1ccc2c(c1NC(=O)COc1ccccc1)C(=O)c1ccccc1C2=O [CC-31, 1-[2-(phenoxy)acetylamino]-2-(chloroacetamido)-anthraquinone]	101 ± 4.91%	83 ± 1.98%	72.9%	4.7%	66.5%	4.86%
161 to 162 °C	O=C(CCl)Nc1ccc2c(c1NC(=O)CSc1ccccc1)C(=O)c1ccccc1C2=O [CC-32, 1-[2-(phenylsulfanyl)acetylamino]-2-(chloroacetamido)-anthraquinone]	88.5 ± 2.25%	80 ± 4.39%	3.89%	-0.05%	5.73%	
156 to 157 °C	Cc1ccc(C(=O)Nc2c(NC(=O)CN(C)CC3OCCO3)ccc3c2C(=O)c2ccccc2C3=O)cc1 [CC-36, 1-(4-methylbenzamido)-2-[2-[(1,3-dioxolan-2-ylmethyl)(methyl)amino]acetylamino]-anthraquinone]	104 ± 2.12%	101 ± 3.01%	76.5%	10.2%	88.6%	3.78%
166 to 167 °C	Cc1ccc(C(=O)Nc2c(NC(=O)CN(C)CCc3ccccn3)ccc3c2C(=O)c2ccccc2C3=O)cc1 [CC-37, 4-methyl-N-(2-(2-(methyl(2-(pyridin-2-yl)ethyl)amino)acetamido)-9,10-dioxo-9,10-dihydroanthracen-1-yl)benzamide]	94.9 ± 6.49%	90.6 ± 1.48%	11.9%	1.47%	46.2%	22%
213 to 214 °C	Cc1ccc(C(=O)Nc2c(NC(=O)CN3CCCCC3)ccc3c2C(=O)c2ccccc2C3=O)cc1 [CC-39, N-(9,10-dioxo-2-(2-(piperidin-1-yl)acetamido)-9,10-dihydroanthracen-1-yl)-4-methylbenzamide]	86.3 ± 6.52%	85.4 ± 7.56%	70.1%	8.3%	70.2%	10.8%
225 to 226 °C	Cc1ccc(C(=O)Nc2c(NC(=O)CN3CCOCC3)ccc3c2C(=O)c2ccccc2C3=O)cc1 [CC-41, 1-(4-methylbenzamido)-2-[(2-morpholinoacetyl)amino]-anthraquinone]	81.5 ± 6.24%	98.37 ± 0.9%	54.2%	3.75%	56.7%	15.5%
210 to 211 °C	Cc1ccc(C(=O)Nc2c(NC(=O)CN3CCSCC3)ccc3c2C(=O)c2ccccc2C3=O)cc1 [CC-42, 1-(4-methylbenzamido)-2-[2-(1,4-thiazinan-4-yl)acetylamino]-anthraquinone]	85.8 ± 7.69%	88 ± 1.2%	72.6%	12.2%	70%	20%

SMILES	melting point	viability at 1 μM [1]	activity at 1 µM (hTERT)	activity at 10 µM (hTERT)	activity at 100 µM (hTERT)	viability at 10 μM [1]	viability at 100 μM [1]
Cc1cc(C(=O)Nc2c(NC(=O)CCl)ccc3c2C(=O)c2ccccc2C3=O)c(C)o1 [CC-30, 1-[(2,5-dimethyl-3-furoyl)amino]-2-(chloroacetamido)-anthraquinone]	207 to 208 °C	96 ± 2.27%	81.2 ± 1.85%	2.37%	0.83%	2.93%	
O=C(CN1CCN(c2ccccc2F)CC1)Nc1ccc2c(c1NC(=O)c1ccccc1)C(=O)c1ccccc1C2=O [CC-34, 1-(benzamido)-2-[2-[4-(2-fluorophenyl)piperazino]acetylamino]-anthraquinone]	228 to 229 °C	98.6 ± 2.29%	98.7 ± 2.55%	79.6 ± 1.35%	15.6 ± 1.54%	92.3 ± 2.41%	27.8 ± 4.82%
Cc1ccc(C(=O)Nc2c(NC(=O)CN(C)C)ccc3c2C(=O)c2ccccc2C3=O)cc1 [CC-35, 1-(4-methylbenzamido)-2-[2-(dimethylamino)acetylamino]-anthraquinone]	190 to 191 °C	107 ± 2.85%	99.5 ± 3.37%	78.5%	9.61%	88.4%	
Cc1ccc(C(=O)Nc2c(NC(=O)CN3CCC4(CC3)OCCO4)ccc3c2C(=O)c2ccccc2C3=O)cc1 [CC-40, 1-(4-methylbenzamido)-2-[2-(1,4-dioxa-8-azaspiro[4.5]dec-8-yl)acetylamino]-anthraquinone]	197 to 198 °C	74.3 ± 6.15%	78.9 ± 3.67%	51.6%	6.67%	55.5%	16.8%
Cc1ccc(C(=O)Nc2c(NC(=O)CN3CCN(c4ccccc4)CC3)ccc3c2C(=O)c2ccccc2C3=O)cc1 [CC-45, 1-(4-methylbenzamido)-2-[2-(4-phenylpiperazino)acetylamino]-anthraquinone]	270 to 271 °C	80.8 ± 6.98%	93.2 ± 4.68%	88.2%	15.9%	77%	23.2%
Cc1ccc(C(=O)Nc2c(NC(=O)CN3CCN(c4ccccc4F)CC3)ccc3c2C(=O)c2ccccc2C3=O)cc1 [CC-46, 1-(4-methylbenzamido)-2-[2-[4-(2-fluorophenyl)piperazino]acetylamino]-anthraquinone]	228 to 229 °C	79.8 ± 9.65%	85 ± 10.8%	76.2%	20.1%	68.7%	40.8%
